Measured values from ChEMBL document CHEMBL5576145, “Domoic Acid as a Lead for the Discovery of the First Selective Ligand for Kainate Receptor Subtype 5 (GluK5)” (J Med Chem, 2024).
pIC50, pKi: −log10 of the molar value.

Tests used:
[1] = target: Glutamate receptor ionotropic, kainate 2 (Rattus norvegicus) (UniProt P42260); experiment: Displacement of [3H]-KA from rat GluK2 assessed as percentage of radioligand binding at 10 uM relative to control
[2] = target: Glutamate NMDA receptor (Rattus norvegicus) (UniProt P35439+Q00959+Q00960+Q00961+Q62645+Q8VHN2+Q9R1M7); experiment: Displacement of [3H]CGP39653 from NMDA receptor in rat cortical synaptosomes assessed as remaining activity at 10 uM incubated for 60 mins by Topcount microplate scintillation counting method relative to control; type: subcellular; details: Cortex, Synaptosome
[3] = target: Glutamate receptor 4 (Rattus norvegicus) (UniProt P19493); experiment: Displacement of [3H]-AMPA from AMPA in rat cortical synaptosomes assessed as remaining activity at 10 uM incubated for 30 mins by TopCount microplate scintillation counting method relative to control; type: subcellular; details: Cortex, Synaptosome
[4] = target: T1, Glutamate receptor ionotropic, kainate 5 (Mus musculus) (UniProt Q61626); experiment: Displacement of [3H]-kainate from mouse GluK5 expressed in Sf9 cell membrane assessed as remaining activity at 10 uM incubated for 2 hrs by scintillation counting method relative to control; type: cell membranes
T1 sequence (whole entry): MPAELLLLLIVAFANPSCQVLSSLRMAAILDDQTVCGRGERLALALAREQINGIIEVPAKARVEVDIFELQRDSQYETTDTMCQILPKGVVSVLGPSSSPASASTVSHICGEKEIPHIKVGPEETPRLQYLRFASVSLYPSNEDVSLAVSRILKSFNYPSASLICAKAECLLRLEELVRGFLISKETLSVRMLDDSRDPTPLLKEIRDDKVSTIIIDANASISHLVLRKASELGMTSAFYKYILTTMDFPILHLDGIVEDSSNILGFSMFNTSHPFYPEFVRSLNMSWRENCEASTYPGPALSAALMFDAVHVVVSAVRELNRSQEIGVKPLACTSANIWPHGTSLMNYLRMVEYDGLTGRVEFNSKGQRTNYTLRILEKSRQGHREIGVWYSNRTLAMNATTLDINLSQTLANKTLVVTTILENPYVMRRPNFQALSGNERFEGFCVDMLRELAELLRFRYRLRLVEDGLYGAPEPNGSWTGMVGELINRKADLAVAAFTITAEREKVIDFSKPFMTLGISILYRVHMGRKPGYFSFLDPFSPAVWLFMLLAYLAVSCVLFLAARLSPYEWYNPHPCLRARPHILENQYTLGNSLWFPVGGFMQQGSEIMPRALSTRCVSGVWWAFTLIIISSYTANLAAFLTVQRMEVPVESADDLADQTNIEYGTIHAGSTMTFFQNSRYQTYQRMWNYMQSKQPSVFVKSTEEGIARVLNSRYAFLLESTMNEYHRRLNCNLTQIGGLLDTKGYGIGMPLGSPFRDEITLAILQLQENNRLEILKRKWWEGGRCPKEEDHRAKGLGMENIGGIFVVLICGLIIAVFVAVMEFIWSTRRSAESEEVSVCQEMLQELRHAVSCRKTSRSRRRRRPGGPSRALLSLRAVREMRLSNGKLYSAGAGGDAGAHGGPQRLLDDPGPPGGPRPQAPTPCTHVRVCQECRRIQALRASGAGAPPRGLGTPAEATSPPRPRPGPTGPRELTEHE

[5] = target: Glutamate receptor ionotropic, kainate 1 (Rattus norvegicus) (UniProt P22756); experiment: Displacement of [3H]-NF608 from rat GluK1 assessed as percent of radioligand binding at 10 uM relative to control
[6] = target: Glutamate receptor ionotropic, kainate 3 (Rattus norvegicus) (UniProt P42264); experiment: Displacement of [3H]-KA from rat GluK3 assessed as percentage of radioligand binding at 10 uM relative to control
Rattus norvegicus = species: Rattus norvegicus; experiment: Displacement of [3H]-KA from KA in rat cortical synaptosomes assessed as remaining activity at 10 uM incubated for 60 mins by TopCount microplate scintillation counting method relative to control; type: subcellular; details: Cortex, Synaptosome
[7] = Displacement of [3H]-Kainic acid from KA in rat synaptic membrane; type: subcellular, Synaptosome
Glutamate receptor 4 [8] = target: T2, Glutamate receptor 4 (Rattus norvegicus, UniProt P19493); experiment: Displacement of [3H]-AMPA from AMPA in rat synaptic membrane; type: subcellular, Synaptosome
[9] = target: T3, Glutamate receptor ionotropic, kainate 5 (Mus musculus, UniProt Q61626); experiment: Displacement of [3H]-kainate from mouse GluK5 expressed in Sf9 cell membrane incubated for 2 hrs by scintillation counting method; type: cell membranes
T3 sequence (Q61626 whole entry): T1 sequence (whole entry)

[10] = Displacement of [3H]-KA from KA in rat cortical synaptosomes incubated for 60 mins by TopCount microplate scintillation counting method; type: subcellular, Cortex, Synaptosome
[11] = target: Glutamate receptor ionotropic, kainate 1 (Rattus norvegicus, UniProt P22756); experiment: Displacement of [3H]-NF608 from rat GluK1
[12] = target: Glutamate receptor ionotropic, kainate 3 (Rattus norvegicus, UniProt P42264); experiment: Displacement of [3H]-KA from rat GluK3
[13] = target: Glutamate receptor ionotropic, kainate 2 (Rattus norvegicus, UniProt P42260); experiment: Displacement of [3H]-KA from rat GluK2
[14] = Displacement of [3H]-Kainic acid from KA in rat brain membrane preincubated for 15 mins followed by [3H]-Kainic acid addition and measured after 1 hr by scintillation counting method; type: cell membranes
Glutamate receptor 4 [15] = target: T2, Glutamate receptor 4; experiment: Displacement of [3H]-AMPA from AMPA in rat brain membrane preincubated for 15 mins followed by [3H]-AMPA addition and measured after 40 mins by scintillation counting method; type: cell membranes

T2 sequence (P19493 whole entry): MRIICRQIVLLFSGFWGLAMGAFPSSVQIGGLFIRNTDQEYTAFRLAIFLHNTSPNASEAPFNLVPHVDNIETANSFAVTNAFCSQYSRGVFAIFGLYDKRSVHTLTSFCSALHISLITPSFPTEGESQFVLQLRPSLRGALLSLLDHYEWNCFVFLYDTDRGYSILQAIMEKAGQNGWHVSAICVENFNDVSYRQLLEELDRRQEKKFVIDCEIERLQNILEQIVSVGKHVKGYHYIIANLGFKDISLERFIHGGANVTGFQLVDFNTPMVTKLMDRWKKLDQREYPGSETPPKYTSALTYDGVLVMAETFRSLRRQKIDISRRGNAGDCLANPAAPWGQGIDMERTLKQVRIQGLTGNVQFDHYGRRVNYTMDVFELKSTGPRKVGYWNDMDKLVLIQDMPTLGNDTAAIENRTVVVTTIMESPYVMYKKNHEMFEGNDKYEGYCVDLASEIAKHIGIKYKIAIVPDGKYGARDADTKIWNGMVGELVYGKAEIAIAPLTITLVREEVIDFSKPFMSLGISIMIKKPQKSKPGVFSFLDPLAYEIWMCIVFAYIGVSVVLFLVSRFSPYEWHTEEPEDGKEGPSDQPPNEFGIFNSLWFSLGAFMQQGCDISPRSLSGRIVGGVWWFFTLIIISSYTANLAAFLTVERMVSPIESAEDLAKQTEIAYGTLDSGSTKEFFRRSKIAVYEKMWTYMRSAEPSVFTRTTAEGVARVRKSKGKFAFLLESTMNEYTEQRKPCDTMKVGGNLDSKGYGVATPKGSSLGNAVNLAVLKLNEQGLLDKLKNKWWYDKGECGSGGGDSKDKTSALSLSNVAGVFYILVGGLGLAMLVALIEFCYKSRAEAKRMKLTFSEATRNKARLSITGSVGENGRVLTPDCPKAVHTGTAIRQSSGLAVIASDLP
Chain of Glutamate receptor 4 (Rattus norvegicus) (P19493 whole entry): as above
Chain of Glutamate receptor ionotropic, kainate 3 (Rattus norvegicus) (P42264 whole entry): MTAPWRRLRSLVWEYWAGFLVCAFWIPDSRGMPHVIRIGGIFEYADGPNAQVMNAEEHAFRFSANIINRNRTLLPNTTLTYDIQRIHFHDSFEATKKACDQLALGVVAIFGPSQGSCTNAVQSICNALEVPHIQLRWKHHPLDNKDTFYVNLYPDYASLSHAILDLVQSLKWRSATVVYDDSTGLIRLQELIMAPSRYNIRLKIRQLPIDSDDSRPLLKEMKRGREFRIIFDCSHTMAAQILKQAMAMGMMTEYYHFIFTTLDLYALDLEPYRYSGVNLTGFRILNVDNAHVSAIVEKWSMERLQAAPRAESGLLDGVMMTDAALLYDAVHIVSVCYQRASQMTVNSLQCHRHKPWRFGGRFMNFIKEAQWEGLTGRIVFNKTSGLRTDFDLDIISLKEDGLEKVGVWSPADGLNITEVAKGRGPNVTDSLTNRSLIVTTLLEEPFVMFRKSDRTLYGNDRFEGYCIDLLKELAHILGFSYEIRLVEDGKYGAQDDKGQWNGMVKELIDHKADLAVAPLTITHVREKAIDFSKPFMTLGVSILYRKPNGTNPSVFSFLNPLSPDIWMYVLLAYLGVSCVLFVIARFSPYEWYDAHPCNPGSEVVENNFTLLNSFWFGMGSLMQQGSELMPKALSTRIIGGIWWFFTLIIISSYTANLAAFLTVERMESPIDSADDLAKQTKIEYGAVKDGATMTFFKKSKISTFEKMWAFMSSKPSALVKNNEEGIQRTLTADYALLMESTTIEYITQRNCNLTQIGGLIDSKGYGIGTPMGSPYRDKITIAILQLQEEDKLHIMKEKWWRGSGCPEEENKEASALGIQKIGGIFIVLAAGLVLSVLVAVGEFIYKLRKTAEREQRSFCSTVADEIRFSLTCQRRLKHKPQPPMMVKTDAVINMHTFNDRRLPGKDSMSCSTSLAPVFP
Chain of Glutamate receptor ionotropic, kainate 1 (Rattus norvegicus) (P22756 whole entry): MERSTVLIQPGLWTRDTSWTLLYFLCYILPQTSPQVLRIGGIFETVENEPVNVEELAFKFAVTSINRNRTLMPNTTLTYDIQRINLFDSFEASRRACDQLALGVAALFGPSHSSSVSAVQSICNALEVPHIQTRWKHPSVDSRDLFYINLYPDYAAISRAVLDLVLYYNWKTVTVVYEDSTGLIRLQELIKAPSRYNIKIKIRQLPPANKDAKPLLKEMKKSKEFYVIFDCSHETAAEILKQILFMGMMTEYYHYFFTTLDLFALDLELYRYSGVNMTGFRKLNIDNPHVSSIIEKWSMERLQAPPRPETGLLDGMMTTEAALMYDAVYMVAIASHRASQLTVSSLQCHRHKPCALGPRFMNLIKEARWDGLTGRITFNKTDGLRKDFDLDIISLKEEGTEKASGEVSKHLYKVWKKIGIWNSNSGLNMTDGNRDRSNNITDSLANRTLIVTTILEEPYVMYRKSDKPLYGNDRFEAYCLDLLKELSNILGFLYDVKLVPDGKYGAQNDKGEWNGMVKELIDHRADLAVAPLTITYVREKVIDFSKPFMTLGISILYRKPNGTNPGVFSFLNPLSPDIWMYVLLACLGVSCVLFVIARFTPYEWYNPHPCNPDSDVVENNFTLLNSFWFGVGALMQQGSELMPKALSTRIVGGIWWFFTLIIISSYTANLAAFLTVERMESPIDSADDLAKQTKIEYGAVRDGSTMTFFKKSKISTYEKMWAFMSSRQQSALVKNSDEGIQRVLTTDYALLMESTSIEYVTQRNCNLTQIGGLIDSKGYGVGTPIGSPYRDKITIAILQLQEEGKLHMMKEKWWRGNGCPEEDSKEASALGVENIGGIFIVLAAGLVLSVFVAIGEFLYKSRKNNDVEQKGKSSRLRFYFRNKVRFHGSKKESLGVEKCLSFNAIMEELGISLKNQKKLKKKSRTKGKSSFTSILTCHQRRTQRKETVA
Chain of Glutamate receptor ionotropic, kainate 2 (Rattus norvegicus) (P42260 whole entry): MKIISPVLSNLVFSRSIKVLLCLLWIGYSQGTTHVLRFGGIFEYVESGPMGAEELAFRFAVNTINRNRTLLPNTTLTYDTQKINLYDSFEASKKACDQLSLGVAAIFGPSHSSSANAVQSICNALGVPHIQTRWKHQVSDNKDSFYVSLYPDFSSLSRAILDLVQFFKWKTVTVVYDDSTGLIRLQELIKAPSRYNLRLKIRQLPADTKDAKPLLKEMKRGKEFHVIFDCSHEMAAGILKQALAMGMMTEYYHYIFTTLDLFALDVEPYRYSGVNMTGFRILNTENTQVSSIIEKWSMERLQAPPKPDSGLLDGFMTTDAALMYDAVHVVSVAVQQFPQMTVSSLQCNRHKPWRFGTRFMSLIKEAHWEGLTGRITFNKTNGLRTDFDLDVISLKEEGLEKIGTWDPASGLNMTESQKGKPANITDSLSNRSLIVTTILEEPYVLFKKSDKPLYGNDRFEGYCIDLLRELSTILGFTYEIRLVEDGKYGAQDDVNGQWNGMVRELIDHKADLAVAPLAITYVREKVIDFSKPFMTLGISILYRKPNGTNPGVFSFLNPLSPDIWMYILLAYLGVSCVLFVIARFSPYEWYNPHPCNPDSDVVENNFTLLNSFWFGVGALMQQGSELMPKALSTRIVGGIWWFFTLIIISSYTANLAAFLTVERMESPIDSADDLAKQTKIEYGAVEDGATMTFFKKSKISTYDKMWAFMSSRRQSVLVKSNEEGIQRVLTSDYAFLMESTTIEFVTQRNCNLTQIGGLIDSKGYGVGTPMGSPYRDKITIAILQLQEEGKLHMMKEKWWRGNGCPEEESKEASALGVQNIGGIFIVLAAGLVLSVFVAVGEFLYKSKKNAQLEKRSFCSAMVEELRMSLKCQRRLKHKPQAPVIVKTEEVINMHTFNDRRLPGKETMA
Chain of Glutamate receptor ionotropic, kainate 3 (P42264 whole entry): as the sequence (P42264 whole entry) above
Chain of Glutamate receptor ionotropic, kainate 1 (P22756 whole entry): as the sequence (P22756 whole entry) above
Chain of Glutamate receptor ionotropic, kainate 2 (P42260 whole entry): as the sequence (P42260 whole entry) above

Row | Compound | Activity [1] | Activity [5] | Activity [6] | pKi [9] | other results
1 | O=C(O)C[C@@H]1[C@@H](C(=O)O)NC[C@@H]1c1ccc(C(=O)O)[nH]c1=O |  |  |  |  | pIC50 [7]: 6.48; pIC50 (Glutamate receptor 4 [8]): 7.22
2 | C/C(=C\C=C\[C@@H](C)C(=O)O)[C@H]1CN[C@H](C(=O)O)[C@H]1CC(=O)O [DOMORIC ACID] |  |  |  |  | pIC50 [14]: 6.03; pIC50 (Glutamate receptor 4 [15]): 4.92
3 | Nc1cccc(-c2cn([C@H]3CN[C@H](C(=O)O)[C@H]3CC(=O)O)nn2)c1 | 102% | 97% | 93% | 5.49 | 
4 | O=C(O)C[C@@H]1[C@@H](C(=O)O)NC[C@@H]1n1nncc1-c1ccc(F)cc1F | 73% | 96% | 90% | 5.27 | 
5 | CCc1ccc(-c2cnnn2[C@H]2CN[C@H](C(=O)O)[C@H]2CC(=O)O)cc1 | 92% | 95% | 83% |  | Activity [4]: 45%
6 | COc1cccc(-c2cnnn2[C@H]2CN[C@H](C(=O)O)[C@H]2CC(=O)O)c1 | 89% | 88% | 74% | 5.99 | 
7 | O=C(O)C[C@@H]1[C@@H](C(=O)O)NC[C@@H]1n1nncc1-c1ccc(C(F)(F)F)cc1 | 103% | 95% | 85% |  | Activity [4]: 62%
8 | O=C(O)C[C@@H]1[C@@H](C(=O)O)NC[C@@H]1n1nncc1-c1cccc(F)c1 | 76% | 60% | 58% | 5.75 | 
9 | O=C(O)C[C@@H]1[C@@H](C(=O)O)NC[C@@H]1n1nncc1-c1ccccn1 |  |  |  | 6.59 | pKi [11]: 4.94; pKi [12]: 5.43; pKi [13]: 5.11
10 | C/C(=C/C=C\[C@@H](C)C(=O)O)[C@H]1CN[C@H](C(=O)O)[C@H]1CC(=O)O |  |  |  |  | pIC50 [14]: 7.55; pIC50 (Glutamate receptor 4 [15]): 4.77
11 | C/C(=C/CC[C@@H](C)C(=O)O)[C@H]1CN[C@H](C(=O)O)[C@H]1CC(=O)O |  |  |  |  | pIC50 [14]: 8.05; pIC50 (Glutamate receptor 4 [15]): 5.44
12 | C[C@H](CCC[C@@H](C)[C@H]1CN[C@H](C(=O)O)[C@H]1CC(=O)O)C(=O)O |  |  |  |  | pIC50 [14]: 4.57; pIC50 (Glutamate receptor 4 [15]): < 4.00
13 | O=C(O)C[C@@H]1[C@@H](C(=O)O)NC[C@@H]1c1ccccc1O |  |  |  |  | pIC50 [7]: 7.24; pIC50 (Glutamate receptor 4 [8]): 6.89
14 | C/C(=C/C=C/[C@H](C)C(=O)O)[C@H]1CN[C@H](C(=O)O)[C@H]1CC(=O)O |  |  |  |  | pIC50 [14]: 7.55; pIC50 (Glutamate receptor 4 [15]): 5.24
15 | C=C(C)[C@H]1CN[C@H](C(=O)O)[C@H]1CC(=O)O [KAINIC ACID] |  |  |  |  | pIC50 [7]: 7.92; pIC50 (Glutamate receptor 4 [8]): 5.72

Further lines, with some results ahead:

Row | Activity [1] | Activity [5] | Activity [6] | pKi [9] | Compound | other results
16 | 85% | 79% | 79% |  | O=C(O)C[C@@H]1[C@@H](C(=O)O)NC[C@@H]1n1nncc1C(=O)O | Activity [2]: 66%; Activity [3]: 85%; Activity [4]: 89%; Activity (Rattus norvegicus): 80%
17 | 97% | 94% | 90% | 5.25 | O=C(O)C[C@@H]1[C@@H](C(=O)O)NC[C@@H]1n1nncc1CCc1ccccc1 | Activity [2]: 98%; Activity [3]: 98%; pIC50 [10]: 4.46
18 |  |  |  | 6.32 | O=C(O)CCCc1cnnn1[C@H]1CN[C@H](C(=O)O)[C@H]1CC(=O)O | Activity [2]: 90%; pKi [11]: 4.97; Activity [3]: 86%; pKi [12]: 5.21; pKi [13]: 5.11; pIC50 [10]: 5.64
19 | 92% | 98% | 80% |  | O=C(O)C[C@@H]1[C@@H](C(=O)O)NC[C@@H]1n1nncc1-c1cccnc1 | Activity [4]: 47%
20 | 92% | 99% | 94% | 4.95 | O=C(O)C[C@@H]1[C@@H](C(=O)O)NC[C@@H]1n1nncc1Cc1ccccc1 | Activity [2]: 87%; Activity [3]: 86%; Activity (Rattus norvegicus): 79%
21 | 76% | 94% | 84% | 5.10 | O=C(O)C[C@@H]1[C@@H](C(=O)O)NC[C@@H]1n1nncc1CO | Activity [2]: 102%; Activity [3]: 86%; pIC50 [10]: 4.66
22 | 80% | 97% | 91% |  | O=C(O)C[C@@H]1[C@@H](C(=O)O)NC[C@@H]1n1nncc1CN1CCS(=O)(=O)CC1 | Activity [4]: 94%
